Data from US9513294B2, “Megastokes amino-triazolyl-BODIPY compounds and applications to live neuron staining and human serum albumin FA1 drug site probing” (National University of Singapore, priority 2012, dated 2016).
Each block holds one molecule with its values, some of them ahead of it.

What was measured:
[1] = Quantum yield measurements versus Acridine Yellow in EtOH; format: physicochemical; conditions: for φ (quantum yield): excitation 460 nm; for φ (%): quantum yield
Summary of the method: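 Emission areas integrated over 510–700 nm were compared with Acridine Yellow in ethanol (Φ=0.47), all excited at 460 nm. The comparative equation was normalized to excitation-wavelength absorbance and solvent refractive index.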

[2] = Absorbance and fluorescence emission spectra (SpectraMax M2); format: physicochemical; conditions: for λmax Absorp. (nm) / λmax Emission (nm): MKCA compound library; for λmax Absorp. (nm) / λmax Abs. (nm): absorbance maximum; for λmax Emission (nm) / λmax Em. (nm): fluorescence emission maximum; for λmax Abs. (nm) / λmax Em. (nm): MKAC compound library
Summary of the method: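 Spectroscopic data, including quantum yields, were recorded with a SpectraMax M2 instrument and analysed in GraphPrism.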

SMILES: Nc1ccc(C2=C3C=CC(N4CCc5ccccc5C4)=[N+]3[B-](F)(F)n3c2ccc3-n2cc(CC3CCCCC3)nn2)cc1 [MK66-8]
φ (quantum yield) ([1]; MK library, Table 5): 0.12%
λmax Absorp. ([2]; MK library, Table 5): 480 nm
λmax Emission ([2]; MK library, Table 5): 590 nm

SMILES: Nc1ccc(C2=C3C=CC(N4CCCCC4)=[N+]3[B-](F)(F)n3c2ccc3-n2cc(C3(O)CCCC3)nn2)cc1 [BDC-67]
φ (quantum yield) ([1]; BDC library, Table 2): 0.09%
λmax Absorp. ([2]; BDC library, Table 2): 478 nm
λmax Emission ([2]; BDC library, Table 2): 595 nm

SMILES: Cc1ccc(-c2cn(-c3ccc4n3[B-](F)(F)[N+]3=C(N5CCCCC5)C=CC3=C4c3ccc(NC(=O)CCl)cc3)nn2)cc1 [BDCCA-10]
φ (quantum yield) ([1]; BDCCA library, Table 4): 2.9%
λmax Absorp. ([2]; BDCCA library, Table 4): 463 nm
λmax Emission ([2]; BDCCA library, Table 4): 558 nm

SMILES: CCCCCc1ccc(-c2cn(-c3ccc4n3[B-](F)(F)[N+]3=C(N5CCCCC5)C=CC3=C4c3ccc(NC(C)=O)cc3)nn2)cc1 [BDCAC-29]
φ (quantum yield) ([1]; BDCAC library, Table 3): 1.6%
λmax Absorp. ([2]; BDCAC library, Table 3): 465 nm
λmax Emission ([2]; BDCAC library, Table 3): 561 nm

SMILES: CC1CN(C2=[N+]3C(=C(c4ccc(N)cc4)c4ccc(-n5cc(C6CCCC6)nn5)n4[B-]3(F)F)C=C2)CC(C)O1 (stereo not drawn) [MK20-5]
φ (quantum yield) ([1]; MK library, Table 5): 0.57%
λmax Absorp. ([2]; MK library, Table 5): 476 nm
λmax Emission ([2]; MK library, Table 5): 580 nm

SMILES: CC(=O)Nc1ccc(C2=C3C=CC(N4CCCCC4)=[N+]3[B-](F)(F)n3c2ccc3-n2cc(COc3ccccc3)nn2)cc1 [BDCAC-17]
φ (quantum yield) ([1]; BDCAC library, Table 3): 0.8%
λmax Absorp. ([2]; BDCAC library, Table 3): 465 nm
λmax Emission ([2]; BDCAC library, Table 3): 584 nm

SMILES: CC(=O)Nc1ccc(C2=C3C=CC(N4CCCCC4)=[N+]3[B-](F)(F)n3c2ccc3-n2cc(C3CCCC3)nn2)cc1 [BDCAC-5]
φ (quantum yield) ([1]; BDCAC library, Table 3): 1.3%
λmax Absorp. ([2]; BDCAC library, Table 3): 469 nm
λmax Emission ([2]; BDCAC library, Table 3): 588 nm

SMILES: CC(=O)Nc1ccc(C2=C3C=CC(N4CCc5ccccc5C4)=[N+]3[B-](F)(F)n3c2ccc3-n2cc(CC3CCCCC3)nn2)cc1 [MKAC66-8]
φ (%) ([1]; MKAC compound library): 2.20%
λmax Abs. (nm) [2]: 469 nm
λmax Em. (nm) [2]: 578 nm

SMILES: CCCCc1ccc(-c2cn(-c3ccc4n3[B-](F)(F)[N+]3=C(N5CCCCC5)C=CC3=C4c3ccc(N)cc3)nn2)cc1 [BDC-12]
φ (quantum yield) ([1]; BDC library, Table 2): 0.09%
λmax Absorp. ([2]; BDC library, Table 2): 473 nm
λmax Emission ([2]; BDC library, Table 2): 594 nm

SMILES: CC(=O)Nc1ccc(C2=C3C=CC(N4CCCCC4)=[N+]3[B-](F)(F)n3c2ccc3-n2cc(CC3CCCCC3)nn2)cc1 [BDCAC-8]
φ (quantum yield) ([1]; BDCAC library, Table 3): 0.9%
λmax Absorp. ([2]; BDCAC library, Table 3): 468 nm
λmax Emission ([2]; BDCAC library, Table 3): 585 nm

SMILES: CC(=O)Nc1ccc(C2=C3C=CC(N4CCc5ccccc5C4)=[N+]3[B-](F)(F)n3c2ccc3-n2cc(CN(C)Cc3ccccc3)nn2)cc1 [MKAC66-18]
φ (%) ([1]; MKAC compound library): 1.56%
λmax Abs. (nm) [2]: 468 nm
λmax Em. (nm) [2]: 585 nm

SMILES: CCCCc1ccc(-c2cn(-c3ccc4n3[B-](F)(F)[N+]3=C(N5CCCCC5)C=CC3=C4c3ccc(NC(C)=O)cc3)nn2)cc1 [BDCAC-12]
φ (quantum yield) ([1]; BDCAC library, Table 3): 1.6%
λmax Absorp. ([2]; BDCAC library, Table 3): 464 nm
λmax Emission ([2]; BDCAC library, Table 3): 558 nm

The remaining lines, values ahead:

φ (%) ([1]; MKCA compound library): 4.60%
λmax Absorp. (nm) [2]: 462 nm
λmax Emission (nm) [2]: 565 nm
SMILES: CCCc1cn(-c2ccc3n2[B-](F)(F)[N+]2=C(N4CCCC4)C=CC2=C3c2ccc(NC(=O)CCl)cc2)nn1 [MKCA215-48]

φ (%) ([1]; MKCA compound library): 20.56%
λmax Absorp. (nm) [2]: 465 nm
λmax Emission (nm) [2]: 562 nm
SMILES: COc1ccc(OC)c(CNC2=[N+]3C(=C(c4ccc(NC(=O)CCl)cc4)c4ccc(-n5cc(CC6CCCCC6)nn5)n4[B-]3(F)F)C=C2)c1 [MKCA181-8]

φ (%) ([1]; MKCA compound library): 25.80%
λmax Absorp. (nm) [2]: 465 nm
λmax Emission (nm) [2]: 560 nm
SMILES: COc1ccc(OC)c(CNC2=[N+]3C(=C(c4ccc(NC(=O)CCl)cc4)c4ccc(-n5cc(C6CCCC6)nn5)n4[B-]3(F)F)C=C2)c1 [MKCA181-5]

φ (%) ([1]; MKCA compound library): 33.46%
λmax Absorp. (nm) [2]: 464 nm
λmax Emission (nm) [2]: 563 nm
SMILES: CCOc1ccccc1CNC1=[N+]2C(=C(c3ccc(NC(=O)CCl)cc3)c3ccc(-n4cc(C5CCCC5)nn4)n3[B-]2(F)F)C=C1 [MKCA103-5]

φ (%) ([1]; MKAC compound library): 22.79%
λmax Abs. (nm) [2]: 465 nm
λmax Em. (nm) [2]: 560 nm
SMILES: CCOc1ccccc1CNC1=[N+]2C(=C(c3ccc(NC(C)=O)cc3)c3ccc(-n4cc(CC(C)C)nn4)n3[B-]2(F)F)C=C1 [MKAC103-43]

φ (%) ([1]; MKCA compound library): 21.53%
λmax Absorp. (nm) [2]: 462 nm
λmax Emission (nm) [2]: 562 nm
SMILES: Cc1ccccc1CNC1=[N+]2C(=C(c3ccc(NC(=O)CCl)cc3)c3ccc(-n4cc(CN(C)Cc5ccccc5)nn4)n3[B-]2(F)F)C=C1 [MKCA101-18]

φ (%) ([1]; MKCA compound library): 2.33%
λmax Absorp. (nm) [2]: 466 nm
λmax Emission (nm) [2]: 585 nm
SMILES: CN(Cc1ccccc1)Cc1cn(-c2ccc3n2[B-](F)(F)[N+]2=C(N4CCc5ccccc5C4)C=CC2=C3c2ccc(NC(=O)CCl)cc2)nn1 [MKCA66-18]

φ (%) ([1]; MKCA compound library): 19.42%
λmax Absorp. (nm) [2]: 464 nm
λmax Emission (nm) [2]: 562 nm
SMILES: COc1ccc(OC)c(CNC2=[N+]3C(=C(c4ccc(NC(=O)CCl)cc4)c4ccc(-n5cc(CO)nn5)n4[B-]3(F)F)C=C2)c1 [MKCA181-70]
